Patent US7868173B2, “Prodrugs of benzoquinolizine-2-carboxylic acid” (Wockhardt Limited, priority 2006, dated 2011)

Key:
[1] = Solubility analysis: aqueous solubility in buffer at physiological pH; assay type: physicochemical; conditions: 25-30° C.
Experimental: Solubility analysis: Method for determining aqueous solubility at different physiological pH at 25-30° C. temperature: To accurately weighed amount of test substance, particular buffer solution was added in portion (about 50 microliter portions) at 25-30° C. temperature till solid is completely dissolved and clear solution is obtained.

[2] = rats, intravenous route; cited from earlier work
[3] = Pharmacokinetic (PK) study in Sprague Dawley rats, oral dose; assay type: in vivo; conditions: rat
Experimental: Method for pharmacokinetic (PK) study in Sprague Dawley rats: Pharmacokinetic study was conducted on male Sprague Dawley rats weighing 200-220 g fasted overnight. (2′S,5S)-9-fluoro-6,7-dihydro-8-(4-L-alaninyloxy-piperidin-1-yl)-5-methyl-1-oxo-1H,5H-benzo[i,j]-quinolizine-2-carboxylic acid methanesulfonic acid salt (A), (2′S,5S)-9-fluoro-6,7-dihydro-8-(4-L-alaninyloxy-piperidin-1-yl)-5-methyl-1-oxo-1H,5H-benzo[i,j]quinolizine-2-carboxylic acid hydrochloride salt (B) and (2′S,5S)-9-fluoro-6,7-dihydro-8-(4-L-valinyloxy-piperidin-1-yl)-5-methyl-1-oxo-1H,5H-benzo[i,j]quinolizine-2-carboxylic acid methanesulfonic acid salt (C) were dissolved in Milli Q water. Compounds A, B and C were administered at the dose of 50 mg/kg orally calculated on the basis of active ingredient. (5S)-9-fluoro -6,7-dihydro-8-(4-hydroxy-piperidin-1-yl)-5-methyl-1-oxo-1H,5H-benzo[i,j]quinolizine-2-carboxylic acid L-arginine salt (D) was dissolved in 1% Tween prior to use. Compounds A and D were administered at the dose of 200 mg/kg orally calculated on the basis of active ingredient. Dose volume was 0.5 ml/200g. Blood samples were collected at predetermined time intervals i.e. 0, 0.5, 1, 2, 4, 6 & 8 h in eppendorff vials containing 10 μl saturated solution of sodium fluoride. Plasma was collected after centrifugation of blood sample at 10000 rpm for 10 min. Plasma samples were analyzed on HPLC for determining drug levels. PK parameters AUC, Cmax were calculated by non-compartmental analysis by using Winnonlin software.

[4] = Oral bioavailability in animals; assay type: in vivo
[5] = repeated intravenous administration, injectable form; cited from earlier work
[6] = over the pH range 8.0-9.5 at 28° C.; cited from earlier work
[7] = as compared to B, 50 mg/kg per os dose
[8] = as compared to D, 200 mg/kg per os dose
[9] = as compared to D, 50 mg/kg per os dose

In the case of C[C@H](N)C(=O)OC1CCN(c2c(F)cc3c(=O)c(C(=O)O)cn4c3c2CC[C@@H]4C)CC1.Cl, the “Solubility (mg/ml) at pH 7” value [1] is reported as 4 mg/ml.
With CC(C)[C@H](N)C(=O)OC1CCN(c2c(F)cc3c(=O)c(C(=O)O)cn4c3c2CC[C@@H]4C)CC1.CS(=O)(=O)O the “Solubility (mg/ml) at pH 7” value [1] was over 200 mg/ml.
In the case of CC(C)[C@H](N)C(=O)OC1CCN(c2c(F)cc3c(=O)c(C(=O)O)cn4c3c2CC[C@@H]4C)CC1 [(2′S,5S)-9-fluoro-6,7-dihydro-8-(4-L-valinyloxy-piperidin-1-yl)-5-methyl-1-oxo-1H,5H-benzo[i,j]quinolizine-2-carboxylic acid, reference compound], the “Solubility (mg/ml) at pH 7” value [1] is reported as under 1 mg/ml.
In the case of C[C@H]1CCc2c(N3CCC(O)CC3)c(F)cc3c(=O)c(C(=O)O)cn1c23.N=C(N)NCCC[C@H](N)C(=O)O [(5S)-9-fluoro-6,7-dihydro-8-(4-hydroxy-piperidin-1-yl)-5-methyl-1-oxo-1H,5H-benzo[i,j]quinolizine-2-carboxylic acid L-arginine salt], the “propensity to cause phlebitis” value [2] is listed as “lower propensity to cause phlebitis”.
With CS(=O)(=O)O.C[C@H](N)C(=O)OC1CCN(c2c(F)cc3c(=O)c(C(=O)O)cn4c3c2CC[C@@H]4C)CC1 [A, (2′S,5S)-9-fluoro-6,7-dihydro-8-(4-L-alaninyloxy-piperidin-1-yl)-5-methyl-1-oxo-1H,5H-benzo[i,j]-quinolizine-2-carboxylic acid methanesulfonic acid salt] the “Solubility (mg/ml) at pH 7” value [1] was over 200 mg/ml, the “% Increase in AUC” value [3, 7] was 175% and the “% Increase in Cmax” value [3, 7] was 300%. The “% Increase in AUC” value [3, 8] was 120% and the “% Increase in Cmax” value [3, 8] was 200%.
With CC(C)[C@H](N)C(=O)OC1CCN(c2c(F)cc3c(=O)c(C(=O)O)cn4c3c2CC[C@@H]4C)CC1.CS(=O)(=O)O [C, (2′S,5S)-9-fluoro-6,7-dihydro-8-(4-L-valinyloxy-piperidin-1-yl)-5-methyl-1-oxo-1H,5H-benzo[i,j]quinolizine-2-carboxylic acid methanesulfonic acid salt] the “% Increase in AUC” value [3, 9] was 92% and the “% Increase in Cmax” value [3, 9] was 97%.
For C[C@H]1CCc2c(N3CCC(O)CC3)c(F)cc3c(=O)c(C(=O)O)cn1c23.N=C(N)NCCC[C@H](N)C(=O)O.O.O.O.O [S-(−)-9-fluoro-6,7-dihydro-8-(4-hydroxypiperidin-1-yl)-5-methyl-1-oxo-1H,5H-benzo[i,j]quinolizine-2-carboxylic acid L-arginine salt tetrahydrate], the oral bioavailability [4] is listed as “poor” and the venous inflammation [5] is listed as “not causing venous inflammation”.
For C[C@H]1CCc2c(N3CCC(O)CC3)c(F)cc3c(=O)c(C(=O)[O-])cn1c23.[Na+] [S-(−)-9-fluoro-6,7-dihydro-8-(4-hydroxypiperidin-1-yl)-5-methyl-1-oxo-1H,5H-benzo[i,j]quinolizine-2-carboxylic acid sodium salt], the “propensity to cause phlebitis” value [2] is listed as “high propensity to cause phlebitis”.
For “S-(−)-9-fluoro-6,7-dihydro-8-(4-hydroxypiperidin-1-yl)-5-methyl-1-oxo-1H,5H-benzo[i,j]quinolizine-2-carboxylic acid”, the “Solubility (mg/ml) at pH 7” value [1] is listed as under 1 mg/ml, the oral bioavailability [4] is listed as “poor” and the aqueous solubility [6] is listed as 800 to 2000 µg/mL.
